Reference: ChEMBL document CHEMBL3507680, “University of Dundee, Gates Library screen for HepG2 cell viability”

Experiment: Human HepG2 cell viability assay in 384 well format
Format: toxicity, cell-based
Design: dose 125 nL, time 70.5 hour; cytotoxicity at 70.5 h: concentration not given beside the values
Settings: HepG2 cells, read-out: Inhibition

SMILES | cytotoxicity at 70.5 h
CC(=O)N1CCc2ccc(S(=O)(=O)N3CCCCC3C)cc21 (stereo not drawn) | 0.13%
CN(Cc1ccc([S+](C)[O-])cc1)c1ccccn1 (stereo not drawn) | -10.9%
O=C(Nc1cc(CSCCO)ccn1)c1ccc(Cl)o1 | -10.5%
Cc1ccsc1CNC(=O)CC1CN(C(=O)OC(C)(C)C)C1 | -9.31%
CCNC(=O)CN1CCSC2(CCCCC2)C1 | -11.1%
CNS(=O)(=O)CCCN1CCCCCC1c1ccc(C)o1 (stereo not drawn) | -11%
Cc1cscc1C(=O)Nc1cc(CSCCO)ccn1 | -3.95%
Cc1cccc2nc(CSCc3nnnn3C(C)C)cn12 | -14.3%
COCCN(Cc1ccco1)Cc1nc(-c2ccccc2)no1 | 19.2%
Cc1nc(-c2ccccc2C)n(CC(=O)NC(C)C2CC2)n1 (stereo not drawn) | -5.7%
Cc1nc(C)n(CC2CCCN2c2ncnc3c2CCC3)n1 (stereo not drawn) | 15.2%
CCCC(C#N)NC(=O)Cc1csc(CC)n1 (stereo not drawn) | -0.509%
COCCSc1ccc(C(C)NC(=O)Nc2cn[nH]c2)cc1 (stereo not drawn) | -6.86%
Cc1nc(-c2ccccc2)n(CC(=O)NC(C2CC2)C2CC2)n1 | -4.87%
Cc1ccsc1CNc1ccc(C(=O)N2CCNC(=O)C2)cn1 | -2.58%
Cc1noc(C)c1CN(C)Cc1nc(N)c2ccccc2n1 | 13.8%
CC(C)Oc1ccc(-c2csc(Cn3ccc(=O)[nH]c3=O)n2)cc1 | -0.0528%
O=C(Nc1ccccc1)NC1CCN(C2CCOC2)CC1 (stereo not drawn) | 5.7%
Cc1cccc(NC(=O)NC2CCN(C3CCOC3)CC2)c1 (stereo not drawn) | 3.03%
O=C(NCc1ccccn1)Nc1ccc2[nH]nnc2c1 | -4.24%
Cn1cnnc1-c1cncc(NCc2ccccc2Br)c1 | 13.6%
CC(=O)c1csc(-c2csc(Cn3ccc(=O)[nH]c3=O)n2)c1 | 4.03%
NC(=O)NC(=O)CCn1ccc(-c2ccsc2)n1 | -1.15%
Cc1noc(C)c1CSCc1nc(N)c2ccccc2n1 | 0.626%

SMILES | cytotoxicity at 70.5 h
C[C@@H]1CN(C(=O)Nc2cccc(OC(F)F)c2)CC(C(N)=O)O1 (stereo partly drawn) | -1.07%
Cn1cc(S(=O)(=O)N2CCC(OCCCc3ccccc3)C2)cn1 (stereo not drawn) | 21.6%
CCc1nc(CC(=O)NC(C#N)CC(C)C)cs1 (stereo not drawn) | -0.177%
COCCN(Cc1ccco1)Cc1nc(-c2ccsc2)no1 | 11.1%
COCCN(Cc1ccco1)Cc1nc(-c2ccccc2C)no1 | 1.45%
COCCN(Cc1ccco1)Cc1nc(-c2ccc(C)c(F)c2)no1 | 17.2%
CCc1nc(CC(=O)NC(C#N)CC)cs1 (stereo not drawn) | -0.988%
C1CCN(CCOC2CCNCC2)CC1 | 19.9%
Cc1[nH]ccc1C(=O)N(Cc1ccc(O)cc1)CC1CC1 | -3.9%
Cn1cc(C(=O)Nc2cccc(CCN3CCCC3)c2)ccc1=O | -5.46%
COCCNC(=O)C(C)S(=O)(=O)c1ccc(OC)cc1 (stereo not drawn) | 6.85%
CC1CCN(c2ccnc3ccc(Br)cc23)CC1 | 2%
O=C(CNC(=O)C1CC1)NCCOc1cccc(Cl)c1Cl | 31.3%
O=C1CCC(C(=O)NCCOc2ccccc2-c2ccccc2)CN1 (stereo not drawn) | -13.3%
CC(C)CNC(=O)c1ccc(NC(=O)NCC2CC2)cc1Cl | -12.7%
NC(=O)CCn1nnc(-c2cc3ccccc3o2)n1 | -13.1%
N#CCCN(Cc1ccco1)C(=O)Cc1ccc(-n2cnnn2)cc1 | -6.73%
CSc1sc(NC(=O)C2CCCN(C(N)=O)C2)nc1C (stereo not drawn) | -13.6%
CC1CCN(C(=O)C(C)N2CCc3[nH]nc(C(F)(F)F)c3C2)CC1 (stereo not drawn) | -8.79%
CC(C)(C)CN(CCC#N)C(=O)Cc1ccc(-n2cnnn2)cc1 | -10.8%
CC(C(=O)NC1CCCCC1)N1CCc2[nH]nc(C(F)(F)F)c2C1 (stereo not drawn) | -7.82%
CC(C)(C)NS(=O)(=O)c1cc(NC(=O)C2CC2)ccc1F | -5.03%
O=C(CCc1ccsc1)NS(=O)(=O)Cc1ccon1 | -0.591%
CCN1CCN(C(=O)NC(C)c2noc(-c3ccccc3)n2)CC1 (stereo not drawn) | -6.34%

SMILES | cytotoxicity at 70.5 h
O=C(CSCc1ccccn1)N(Cc1ccsc1)C1CC1 | -2.85%
CC(C)(C)c1ncc(CNCC2CCCn3ccnc32)s1 (stereo not drawn) | -4.17%
CN1CCOC(C(=O)Nc2ccc3c(c2)nc(C(C)(C)C)n3C)C1 (stereo not drawn) | -2.12%
Cc1ccc(CNCC2CCCn3ccnc32)s1 (stereo not drawn) | -4.1%
CCCN(CCN(C)C)C(=O)Cc1cn2ccsc2n1 | 5.05%
N#Cc1ccc(NCCCOCC2CCOC2)c(F)c1 (stereo not drawn) | 6.96%
CC(Cn1cccn1)NS(=O)(=O)Cc1ccccc1 (stereo not drawn) | 24.2%
CN(CCC#N)C(=O)Cc1csc(-c2ncccn2)n1 | -3.29%
c1cncc(-c2ccnn2CN2CCC3(CC2)OCCO3)c1 | -5.34%
CN(C)C(=O)Cn1ccc2cc(NC(=O)N3CCSCC3)ccc21 | -7.46%
CN(C)C(=O)Cn1ccc2cc(NC(=O)N3CCOCC3)ccc21 | -5.35%
Cc1cnn(CCCNC(=O)NC2CCN(CC(F)(F)F)C2=O)c1 (stereo not drawn) | -4.78%
CC(C)(NCC(=O)N1CCCC(C(N)=O)C1)c1ccc(Cl)cc1 (stereo not drawn) | -3.83%
CCC[C@@H](NC(N)=O)C(=O)N1Cc2ccccc2-c2ccccc2C1 | -2.69%
CC(CC(=O)Nc1ccc(C(=O)N(C)C)c(Cl)c1)n1cccc1 (stereo not drawn) | 7.79%
COc1cccc2c1CCN(C(=O)NCCc1nccn1C)C2 | -1.05%
COc1cccc2c1CCN(C(=O)NCc1nnc3ccccn13)C2 | 0.687%
CN1CCOC(C(=O)N2CCC3(CCCC3)CC2)C1 (stereo not drawn) | -2.13%
COc1ccc(Cl)cc1NC(=O)N(C)CC(O)COCCOC(C)C (stereo not drawn) | -4.88%
CC(=O)NC1CCCN(c2ccc(C#N)cc2C(F)(F)F)C1 (stereo not drawn) | -0.014%
CN1CCOC(C(=O)N2CCCC(C)(C)CC2)C1 (stereo not drawn) | -3.51%
O=S(=O)(Cc1ccccc1Cl)NC(CO)c1ccco1 (stereo not drawn) | -6.59%
Cc1ccc(OCC(=O)N(C)Cc2ccc(F)cc2)cn1 | -8.48%
COCC1CN(C(=O)Nc2cc(C(F)(F)F)ccc2F)CCO1 (stereo not drawn) | -5.23%

SMILES | cytotoxicity at 70.5 h
COc1ccccc1CN(Cc1nc2c(cnn2C)c(=O)[nH]1)C1CC1 | 28.9%
COc1ccccc1N(C)Cc1nc2c(cnn2C)c(=O)[nH]1 | -4.86%
COc1ccccc1C1(CNc2snc(Cl)c2C#N)CCOCC1 | -4.49%
CC(C)(CC(=O)N(CC(N)=O)C1CCCC1)c1ccccc1 | -9.09%
CN(CCn1cccn1)S(=O)(=O)c1cccc(F)c1C#N | -9.35%
COCC1CN(C(=O)Nc2cc(Cl)cc(Cl)c2)CCO1 (stereo not drawn) | -5.22%
CCCn1nc(-c2nc(COc3ccccc3)no2)ccc1=O | -7.31%
CCCn1nc(-c2nc(Cc3ccc(OC)cc3)no2)ccc1=O | -8.43%
Cc1cc(C#N)ccc1S(=O)(=O)N1CCN(C)Cc2ccccc21 | -0.39%
Cc1noc(COCC(=O)Nc2ccc(Br)c(C)n2)n1 | 24.3%
Cc1noc(CCCC(=O)Nc2ncccc2Br)n1 | -7.59%
CS(=O)(=O)CCOCCNc1ccc2ccc(F)cc2n1 | -3.21%
Cc1cc(F)ccc1S(=O)(=O)N1CCN(C)Cc2ccccc21 | -6.39%
CCC(C)CN(C)C(=O)NCc1ccccc1-n1cccn1 (stereo not drawn) | 1.17%
Cc1noc(COCC(=O)Nc2ncccc2Br)n1 | 2.34%
COCC1CN(C(=O)Nc2ccc(Cl)cc2Cl)CCO1 (stereo not drawn) | -8.42%
CCCN1CCCN(C(=O)C(CC)N2CCCC2=O)CC1 (stereo not drawn) | -14.5%
COCC1CN(C(=O)Nc2cc(Br)ccc2F)CCO1 (stereo not drawn) | -10.1%
COc1cc(F)c(S(=O)(=O)N2CCN(C)Cc3ccccc32)cc1OC | -10.1%
CC(=O)NCCC(=O)Nc1sccc1C(=O)C(C)(C)C | 2.44%
CS(=O)(=O)NCCC(=O)N1CCN(S(=O)(=O)c2ccc(Br)cc2)CC1 | 6.55%
Cc1ccnc(NC(=O)CSCc2cccnc2)c1 | -2.67%
Cc1ccc(-n2ncc(C(=O)NC3CCCCC3)c2N)cc1 | -2.62%
O=C(NCCc1ccccc1)N1CCC(C2OCCO2)CC1 | -4.29%

SMILES | cytotoxicity at 70.5 h
CN(C)C(=O)CNS(=O)(=O)c1cc(Br)ccc1F | 2.64%
CC(O)CNC(=O)NCCCN1CCN(c2ncccn2)CC1 (stereo not drawn) | -6.22%
O=C(c1ccncn1)N1CCC[C@]2(C[C@@H](OCc3ccccn3)CO2)C1 | 10.5%
Cc1cc(C(=O)N2CCn3cc(CN4CCCC4)nc3C2)no1 | -13.3%
O=C(c1cccc(F)c1)N1CC[C@@H]2CN(c3ncccn3)CCO[C@@H]2C1 | -15.1%
O=C(c1cscn1)N1CCc2ncc(CN3CCOCC3)n2CC1 | -15.7%
CN(C)Cc1cnc2n1CCN(C(=O)C1CC=CC1)CC2 | -12.7%
O=C(C1CCOCC1)N1CCc2ncc(CN3CCCCC3)n2CC1 | -10.2%
Cc1ccccc1C(=O)N1CC[C@@H]2CN(c3ncccn3)CCO[C@@H]2C1 | -10.9%
O=C([C@H]1CCCO1)N1CCc2ncc(CN3CCOCC3)n2CC1 | -11.9%
C1CCN(CCOC2CCNC2)CC1 (stereo not drawn) | -3.02%
O=C(NCc1ccco1)[C@H]1COC[C@H]2CN(Cc3ccoc3)C[C@H]21 | 13.6%
O=C(CC1CCCC1)N1CCn2cc(Cn3cccn3)nc2C1 | -11.5%
c1ccc(CN2CCC3(CC2)CC(Nc2nccs2)CO3)nc1 (stereo not drawn) | -8.19%
O=C(CC1CC1)N1CCn2cc(Cn3cccn3)nc2C1 | -15.8%
O=C([C@@H]1CCO[C@@H]2CCN(Cc3ccsc3)C[C@@H]21)N1CCCC1 | -16.1%
O=C(Cc1cccc(F)c1)N1CCn2cc(Cn3cccn3)nc2C1 | -10.7%
O=C(C1CCOCC1)N1CCc2ncc(CN3CCCC3)n2CC1 | -13.2%
CNC(=O)[C@@H]1CCO[C@@H]2CCN(Cc3ccsc3)C[C@H]21 | -14%
O=C(Nc1cnccn1)[C@@H]1CCO[C@@H]2CCN(Cc3ccsc3)C[C@@H]21 | -9.48%
CNC(=O)C1Cn2ccnc2C2(CCN(Cc3nccs3)CC2)O1 (stereo not drawn) | 10.7%
CN(C)c1ccc(CNC2=NCCCN2)cc1 | 13.3%
